Results on one compound are retold here after ChEMBL document CHEMBL1158676, “Aurilol, a Cytotoxic Bromotriterpene Isolated from the Sea Hare Dolabella auricularia” (J Nat Prod, 1998).

Values after ≈ are worked out from the molar mass of the structure shown.

This assay in a line: Cytotoxicity against human HeLaS3 cells. In kind it is functional, cell-based. To be noted: HeLa S3.

Turning to `CC(C)(O)[C@H](O)CC[C@@](C)(O)[C@@H]1CC[C@](C)([C@@H]2CC[C@@H]([C@@]3(C)CC[C@@H]4OC(C)(C)[C@H](Br)CC[C@@]4(C)O3)O2)O1` [AURILOL], the IC50 stood at 4.3 µg/mL (≈ 7.1 µM).

By IC50 is commonly meant the concentration needed to halve the response being measured. A high value points to weaker potency.
